The values that follow come from paper PMC8271864, “Evaluation of Enzyme Inhibitory Activity of Flavonoids by Polydopamine-Modified Hollow Fiber-Immobilized Xanthine Oxidase” (Molecules, 2021).

T1 sequence (P80457 2-1332): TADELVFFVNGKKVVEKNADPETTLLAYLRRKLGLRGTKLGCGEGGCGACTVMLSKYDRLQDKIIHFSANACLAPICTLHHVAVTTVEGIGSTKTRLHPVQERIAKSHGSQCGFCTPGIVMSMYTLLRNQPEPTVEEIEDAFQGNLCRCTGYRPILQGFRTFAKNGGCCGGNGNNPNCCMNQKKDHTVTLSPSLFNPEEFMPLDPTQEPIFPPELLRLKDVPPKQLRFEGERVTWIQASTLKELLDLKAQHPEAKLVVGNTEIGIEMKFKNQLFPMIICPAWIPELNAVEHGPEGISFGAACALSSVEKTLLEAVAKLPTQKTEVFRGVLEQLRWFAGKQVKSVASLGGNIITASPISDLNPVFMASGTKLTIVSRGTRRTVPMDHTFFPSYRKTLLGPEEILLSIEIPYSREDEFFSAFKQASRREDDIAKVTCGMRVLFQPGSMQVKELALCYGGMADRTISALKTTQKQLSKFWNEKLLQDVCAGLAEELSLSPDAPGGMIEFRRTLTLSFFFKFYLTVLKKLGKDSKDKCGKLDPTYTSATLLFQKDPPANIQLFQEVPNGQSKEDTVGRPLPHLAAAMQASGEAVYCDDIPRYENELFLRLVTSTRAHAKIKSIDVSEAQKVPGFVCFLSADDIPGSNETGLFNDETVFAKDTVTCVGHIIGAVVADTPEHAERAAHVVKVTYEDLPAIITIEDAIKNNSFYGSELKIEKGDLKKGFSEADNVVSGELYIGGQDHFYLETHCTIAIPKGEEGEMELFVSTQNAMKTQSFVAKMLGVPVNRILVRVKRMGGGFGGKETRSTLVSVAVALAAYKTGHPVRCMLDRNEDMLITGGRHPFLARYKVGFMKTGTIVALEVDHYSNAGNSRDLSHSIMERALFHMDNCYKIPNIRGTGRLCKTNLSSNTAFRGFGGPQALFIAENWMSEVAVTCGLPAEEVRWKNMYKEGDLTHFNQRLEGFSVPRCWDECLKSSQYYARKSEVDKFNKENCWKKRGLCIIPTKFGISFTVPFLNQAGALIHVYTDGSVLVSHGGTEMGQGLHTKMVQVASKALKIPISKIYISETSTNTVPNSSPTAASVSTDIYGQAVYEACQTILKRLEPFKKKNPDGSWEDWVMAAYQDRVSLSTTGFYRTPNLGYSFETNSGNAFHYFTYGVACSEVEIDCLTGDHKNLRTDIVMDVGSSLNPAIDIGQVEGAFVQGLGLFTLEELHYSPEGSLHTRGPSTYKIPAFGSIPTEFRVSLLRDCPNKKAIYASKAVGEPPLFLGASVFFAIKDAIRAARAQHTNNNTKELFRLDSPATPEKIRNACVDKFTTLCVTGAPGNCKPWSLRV

The assay addresses T1, Xanthine oxidase (XOD) (Bos taurus, UniProt P80457).
T1 construct: gene XDH; commercial XOD immobilized on polydopamine-modified hollow fiber (XOD@PDA@HF)
As to the kind of experiment: immobilized enzyme inhibition at […], hypoxanthine substrate, HPLC detection of uric acid. In kind it is biochemical.
A word on the inhibition: it is the change of the read-out against control, counted positive when it falls. `O=c1cc(-c2ccc(O)cc2)oc2cc(O)cc(O)c12` [Apigenin] displayed an inhibition at 1000 µM of 80.98 ± 0.64%.
In the case of `Oc1cc(O)c2c(c1)O[C@H](c1cc(O)c(O)c(O)c1)[C@H](O)C2` [Epigallocatechin] it was 54.92 ± 0.41%; in that of `O=c1c(-c2ccc(O)cc2)coc2c([C@@H]3O[C@H](CO)[C@@H](O)[C@H](O)[C@H]3O)c(O)ccc12` [Puerarin], 61.1 ± 6.26%; in that of `O=c1c(O)c(-c2ccc(O)c(O)c2)oc2cc(O)cc(O)c12` [Quercetin], 79.9 ± 3.5%.
